Laboratory results from ChEMBL document CHEMBL1201862, “PubChem BioAssay data set” (2004).
“And” between values parts separate entries of the source, which are not always exact repeats. Equal values may be shown once.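 Protocol summary: plate cells (96-well), add compound at 5 concentrations, incubate 48 h, interpolate endpoints linearly. GI50: concentration for 50% inhibition of growth.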 The source made the active and inactive calls. Rule as the data show it: active = GI50 up to about 1.1 µM and inactive = higher.

Tests used:
Assay in all cases: NCI tumour cell line growth inhibition, 48 h
NCI-H522 = system: NCI-H522
HCC 2998 = system: HCC 2998
UO-31 = system: UO-31
SNB-75 = system: SNB-75
IGROV-1 = system: IGROV-1
RXF 393 = system: RXF 393
T47D = system: T47D
CCRF-CEM = system: CCRF-CEM
K562 = system: K562
OVCAR-4 = system: OVCAR-4
SF-268 = system: SF-268
NCI-H460 = system: NCI-H460
PC-3 = system: PC-3
KM12 = system: KM12
TK-10 = system: TK-10
SK-MEL-28 = system: SK-MEL-28
HOP-62 = system: HOP-62
M14 = system: M14
U-251 = system: U-251
EKVX = system: EKVX
HT-29 = system: HT-29
MDA-N = system: MDA-N
SN12C = system: SN12C
A498 = system: A498
NCI-H226 = system: NCI-H226
UACC-257 = system: UACC-257
UACC-62 = system: UACC-62
SK-OV-3 = system: SK-OV-3
LOX IMVI = system: LOX IMVI
Malme-3M = system: Malme-3M
OVCAR-5 = system: OVCAR-5
HCT-116 = system: HCT-116
MDA-MB-435 = system: MDA-MB-435
786-0 = system: 786-0
SNB-19 = system: SNB-19
SF-539 = system: SF-539
SK-MEL-2 = system: SK-MEL-2
MCF7 = system: MCF7
OVCAR-3 = system: OVCAR-3
COLO 205 = system: COLO 205
NCI/ADR-RES = system: NCI/ADR-RES
NCI-H23 = system: NCI-H23
ACHN = system: ACHN
OVCAR-8 = system: OVCAR-8
MOLT-4 = system: MOLT-4
MDA-MB-231 = system: MDA-MB-231
HL-60 = system: HL-60
DU-145 = system: DU-145
A549 = system: A549
SW-620 = system: SW-620
SK-MEL-5 = system: SK-MEL-5
HCT-15 = system: HCT-15
SF-295 = system: SF-295
SR = system: SR
HOP-92 = system: HOP-92

Measured: GI50

CCCCCCCCCCN(CCCCCCCCCC)C(=O)COc1c2cc(C(C)(C)C)cc1Cc1cc(C(C)(C)C)cc(c1OCC(=O)N(CCCCCCCCCC)CCCCCCCCCC)Cc1cc(C(C)(C)C)cc(c1OCC(=O)N(CCCCCCCCCC)CCCCCCCCCC)Cc1cc(C(C)(C)C)cc(c1OCC(=O)N(CCCCCCCCCC)CCCCCCCCCC)C2
active: HOP-92 < 0.01 µM
8.77 µM: HCT-15
inactive: NCI-H522 3.18 µM | HCC 2998 8.85 µM | UO-31 22 µM | SNB-75 18.2 µM | IGROV-1 12.4 µM | RXF 393 9.68 µM | T47D 16.1 µM | CCRF-CEM 4.66 µM | K562 1.9 µM | OVCAR-4 10.4 µM | SF-268 15.1 µM | NCI-H460 12.6 µM | PC-3 9.93 µM | KM12 11.5 µM | TK-10 18.8 µM | SK-MEL-28 11.3 µM | HOP-62 16.1 µM | M14 2.92 µM | U-251 11.2 µM | EKVX 12.1 µM | HT-29 2.34 µM | MDA-N 12.2 µM | SN12C 13.4 µM | A498 15.5 µM | NCI-H226 19.3 µM | UACC-257 15.6 µM | UACC-62 12.6 µM | SK-OV-3 14.4 µM | LOX IMVI 10.2 µM | Malme-3M 15 µM | OVCAR-5 13.3 µM | HCT-116 2.54 µM | MDA-MB-435 12.9 µM | 786-0 11.2 µM | SNB-19 9.79 µM | SF-539 4.34 µM | SK-MEL-2 7.93 µM | MCF7 3.59 µM | OVCAR-3 15.7 µM | COLO 205 15.8 µM | NCI/ADR-RES 14.8 µM | NCI-H23 1.75 µM | ACHN 14.9 µM | OVCAR-8 4.16 µM | MOLT-4 2.76 µM | MDA-MB-231 17.6 µM | HL-60 15 µM | DU-145 17.8 µM | A549 16 µM | SW-620 1.93 µM | SK-MEL-5 13.5 µM | SF-295 10.1 µM | SR 2.96 µM

CCCCCCCCCCCCCCCCP(=O)(O)OP(=O)(O)OCC1OC(n2ccc(N)nc2=O)C(O)C1O (stereo not drawn)
inactive: SNB-75 16.9 µM and 32.9 µM | T47D > 90.2 µM | KM12 31.8 µM and 38.4 µM | TK-10 29.4 µM and 41 µM | SK-MEL-28 32.4 µM and 47.5 µM | EKVX > 100 µM | A498 8.91 µM | OVCAR-5 18.5 µM and 21.7 µM | SF-539 14.3 µM and 22.9 µM | SK-MEL-2 > 100 µM and 76.7 µM | OVCAR-3 60 µM | DU-145 25.8 µM
active: SR 0.323 µM
